Measurements from US9540325B2, “N1-cyclic amine-N5-substituted phenyl biguanide derivatives, methods of preparing the same and pharmaceutical composition comprising the same” (Immunomet Therapeutics, Inc., priority 2011, dated 2017).

How the values were obtained:
HCT116 cells = experiment: Measurement of effect of inhibiting cancer cell proliferation (MTT); type: cell-based, human; details: for inhibition at 100 µM: HCT-116, 100 μM, read-out: Cell Growth Inhibition (%) at 100 μM
In short: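 HCT116 cells (~5,000/well, DMEM with 10% FBS) treated 48 h with compound at 0.39–100 μM, metformin hydrochloride control at 0.1–25 mM. Viability by MTT (3 h, formazan in DMSO, A560) relative to untreated wells; GIC50 from the viability curve, also viability at 100 μM.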

[1] = Solubility in water of hydrochloride and acetate salts; type: physicochemical; details: room temperature
Procedure: The solubilities in water of the hydrochlorides prepared in Examples 26, 27, 32, 33, 48, 49, 53 and 54, and the solubilities in water of the acetates prepared in Examples 70 to 77, were compared.
The experimental conditions and methods are described, as follows.
1) 1 ml of distilled water is added to a container including 5 mg of salt at room temperature.
2) The resulting mixture is stirred for 10 minutes, and then kept at room temperature for 1 hour.
3) Undissolved residual salt is recovered and weighed.
4) The ratio of the amount of the recovered salt and the amount of the dissolved salt is calculated.
5) Operations 1) to 4) are repeatedly performed with increasing amount (i.e., 10, 15, 20, 25 and 30 mg) of salt.
The experimental procedures were performed for each of the hydrochlorides of Examples 26, 27, 32, 33, 48, 49, 53 and 54 and the acetates of Examples 70 to 77. The comparative solubilities obtained using the hydrochlorides of Examples 26, 27, 32, 33, 48, 49, 53 and 54 and the acetates of Examples 70 to 77 are listed in the following Table 1.

AMPKα = experiment: Measurement of AMPK activation effect (AMPKα Thr172 phosphorylation immunoassay) in MCF7 cells; type: cell-based, human; details: 24 hours; for AMPK activation effect at 10 μM (%) / AMPK activation effect at 50 μM (%): relative to untreated cells; for AMPK activation effect AC150: concentration at which AMPK activation reached 150%
In short: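 MCF7 cells in DMEM/10% FBS were treated 24 h with derivatives at 5, 10 and 50 μM (metformin hydrochloride control, 0.05–10 mM). AMPKα Thr172 phosphorylation was measured by immunoassay on 20 μg lysate. AC150 (concentration giving 150% activation) came from concentration–response curves, with activation also reported at fixed concentrations.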

[2] = content 5 mg/1 ml distilled water
[3] = content 10 mg/1 ml distilled water
[4] = content 15 mg/1 ml distilled water
[5] = content 20 mg/1 ml distilled water
[6] = content 25 mg/1 ml distilled water
[7] = content 30 mg/1 ml distilled water

Compound | melting point [°C] | inhibition at 100 µM (HCT116 cells; Homo sapiens, 48 hours) [%] | GI50 (HCT116 cells; Homo sapiens, HCT-116, 48 h) [µM] | Solubility in water (%), hydrochloride salt [1, 2] [%] | AMPK activation effect at 10 μM (%) (AMPKα) | AMPK activation effect AC150 (AMPKα) [µM] | Solubility in water (%), acetate salt [1, 2] [%] | Solubility in water (%), acetate salt [1, 3] [%] | AMPK activation effect at 50 μM (%) (AMPKα) | Solubility in water (%), acetate salt [1, 4] [%] | Solubility in water (%), acetate salt [1, 5] [%] | GI50 (HCT116 cells; 48 hours) [µM] | Solubility in water (%), acetate salt [1, 6] [%] | Solubility in water (%), acetate salt [1, 7] [%]
Cl.N=C(NC(=N)N1CCCC1)Nc1ccc(OC(F)(F)F)c(F)c1 [Example 53, N1-pyrrolidine-N5-(3-fluoro-4-trifluoromethoxy)phenyl biguanide hydrochloride] | 278 to 279 | 101 | 7.6 | 20 | 315 | 5.0 |  |  |  |  |  |  |  | 
N=C(NC(=N)N1CCCCC1)Nc1ccc(OC(F)(F)F)c(F)c1 [Example 77, N1-piperidine-N5-(3-fluoro-4-trifluoromethoxy)phenyl biguanide acetate] |  |  |  |  |  |  | 100 | 50 |  |  |  |  |  | 
Cl.N=C(NC(=N)N1CCCC1)Nc1ccc(OC(F)(F)F)cc1 [Example 32, N1-pyrrolidine-N5-(4-trifluoromethoxy)phenyl biguanide hydrochloride] |  | 97.6 | 23.6 | 50 | 204 | 5.1 |  |  | 680 |  |  |  |  | 
N=C(NC(=N)N1CCCCC1)Nc1ccc(OC(F)(F)F)cc1 [Example 73, N1-piperidine-N5-(4-trifluoromethoxy)phenyl biguanide acetate] |  |  |  |  | 270 | 0.3 | 100 | 100 | 747 | 100 | 20 |  |  | 
Cl.N=C(NC(=N)N1CCCCC1)Nc1ccc(C(F)(F)F)c(F)c1 [Example 49, N1-piperidine-N5-(3-fluoro-4-trifluoromethyl)phenyl biguanide hydrochloride] | 263 to 264 | 96.5 | 5.2 | 20 | 258 | 2.7 |  |  |  |  |  |  |  | 
N=C(NC(=N)N1CCCC1)Nc1ccc(C(F)(F)F)c(F)c1 [Example 74, N1-pyrrolidine-N5-(3-fluoro-4-trifluoromethyl)phenyl biguanide acetate] |  |  |  |  | 461 | 3.4 | 100 | 100 |  | 100 | 50 |  |  | 
N=C(NC(=N)N1CCCC1)Nc1ccc(OC(F)(F)F)c(F)c1 [Example 76, N1-pyrrolidine-N5-(3-fluoro-4-trifluoromethoxy)phenyl biguanide acetate] |  |  |  |  | 341 | 1.3 | 100 | 100 |  | 70 |  |  |  | 
N=C(NC(=N)N1CCCC1)Nc1ccc(C(F)(F)F)cc1 [Example 70, N1-pyrrolidine-N5-(4-trifluoromethyl)phenyl biguanide acetate] |  |  |  |  | 554 | 2.0 | 100 | 100 |  | 100 | 100 | 5.2 | 100 | 50
N=C(NC(=N)N1CCCCC1)Nc1ccc(C(F)(F)F)cc1 [Example 71, N1-piperidine-N5-(4-trifluoromethyl)phenyl biguanide acetate] |  |  |  |  | 313 | 2.3 | 100 | 50 |  |  |  |  |  | 
N=C(NC(=N)N1CCCCC1)Nc1ccc(C(F)(F)F)c(F)c1 [Example 75, N1-piperidine-N5-(3-fluoro-4-trifluoromethyl)phenyl biguanide acetate] |  |  |  |  | 710 | 2.0 | 70 |  |  |  |  |  |  | 
N=C(NC(=N)N1CCCC1)Nc1ccc(OC(F)(F)F)cc1 [Example 72, N1-pyrrolidine-N5-(4-trifluoromethoxy)phenyl biguanide acetate] |  |  |  |  | 186 | 4.6 | 100 | 100 | 938 | 100 | 100 |  | 100 | 50
Cl.N=C(NC(=N)N1CCCCC1)Nc1ccc(OC(F)(F)F)c(F)c1 [Example 54, N1-piperidine-N5-(3-fluoro-4-trifluoromethoxy)phenyl biguanide hydrochloride] | 262 to 263 | 96.4 | 4.5 | 20 | 400 | 0.5 |  |  |  |  |  |  |  | 
Cl.N=C(NC(=N)N1CCCCC1)Nc1ccccc1F [Example 15, N1-piperidine-N5-(2-fluoro)phenyl biguanide hydrochloride] | 155 to 157 | 39.5 | > 100 |  |  | >50 |  |  | 100 |  |  |  |  | 
Cl.N=C(NC(=N)N1CCCC1)Nc1ccc(C(F)(F)F)c(F)c1 [Example 48, N1-pyrrolidine-N5-(3-fluoro-4-trifluoromethyl)phenyl biguanide hydrochloride] | 253 to 254 | 101 | 9.3 | 80 | 299 | 2.5 |  |  |  |  |  |  |  | 
Cl.N=C(NC(=N)N1CCCCC1)Nc1c(F)cc(F)cc1F [Example 69, N1-piperidine-N5-(2,4,6-trifluoro)phenyl biguanide hydrochloride] | 243 to 244 | 21.5 | > 100 |  | 131 | 42.0 |  |  | 156 |  |  |  |  | 
Cl.N=C(NC(=N)N1CCCC1)Nc1cc(Br)cc(OC(F)(F)F)c1 [Example 66, N1-pyrrolidine-N5-(3-bromo-5-trifluoromethoxy)phenyl biguanide hydrochloride] | 241 to 242 | 97.6 | 6.8 |  | 521 | 5.0 |  |  |  |  |  |  |  | 
Cl.N=C(NC(=N)N1CCCCC1)Nc1ccc(Cl)c(Cl)c1 [Example 64, N1-piperidine-N5-(3,4-dichloro)phenyl biguanide hydrochloride] | 267 to 269 | 101 | 6.4 |  | 442 | 0.7 |  |  |  |  |  |  |  | 
Cl.N=C(NC(=N)N1CCCCC1)Nc1ccc(F)cc1F [Example 58, N1-piperidine-N5-(2,4-difluoro)phenyl biguanide hydrochloride] | 256 to 257 | 37.4 | > 100 |  | 131 | 16.5 |  |  | 265 |  |  |  |  | 
Cl.N=C(NC(=N)N1CCCCC1)Nc1ccc(Cl)cc1Cl [Example 62, N1-piperidine-N5-(2,4-dichloro)phenyl biguanide hydrochloride] | 262 to 263 | 97.2 | 11.6 |  | 208 | 5.6 |  |  |  |  |  |  |  | 
Cl.N=C(NC(=N)N1CCCCC1)Nc1ccc(OC(F)(F)F)cc1 [Example 33, N1-piperidine-N5-(4-trifluoromethoxy)phenyl biguanide hydrochloride] | 277.3 | 97.9 | 7.9 | 50 | 538 | 1.4 |  |  |  |  |  |  |  | 
CN1CCN(C(=N)NC(=N)Nc2ccc(OC(F)(F)F)cc2)CC1.Cl [Example 35, N1-(4-methyl)piperazine-N5-(4-trifluoromethoxy)phenyl biguanide hydrochloride] | 258 to 259 | 76.5 | 46.7 |  | 207 | 5.0 |  |  | 542 |  |  |  |  | 
